From patent US11878965B2, “Inhibitors of peptidylarginine deiminases” (Gilead Sciences, Inc., priority 2020, dated 2024)

Biological target: human PAD4 (Homo sapiens (Human), UniProt Q9UM07)
Experiment: In Vitro PAD4 BAEE Biochemical Assay
Details: human PAD4, BAEE substrate; 5 nM PAD4, 2 mM calcium chloride, 3 mM BAEE; geometric mean of multiple experiments
Outline: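 Deimination of BAEE substrate (3 mM) measured as ammonia via o-phthalaldehyde–DTT isoindole fluorescence, 405/535 nm. Tag-free bacterially expressed human PAD4 at 5 nM with 2 mM calcium chloride, pH 7.6 MOPS buffer, 30 min compound preincubation then 2 h reaction, both at 25 °C.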

human PAD4, sequence (Q9UM07 2-663): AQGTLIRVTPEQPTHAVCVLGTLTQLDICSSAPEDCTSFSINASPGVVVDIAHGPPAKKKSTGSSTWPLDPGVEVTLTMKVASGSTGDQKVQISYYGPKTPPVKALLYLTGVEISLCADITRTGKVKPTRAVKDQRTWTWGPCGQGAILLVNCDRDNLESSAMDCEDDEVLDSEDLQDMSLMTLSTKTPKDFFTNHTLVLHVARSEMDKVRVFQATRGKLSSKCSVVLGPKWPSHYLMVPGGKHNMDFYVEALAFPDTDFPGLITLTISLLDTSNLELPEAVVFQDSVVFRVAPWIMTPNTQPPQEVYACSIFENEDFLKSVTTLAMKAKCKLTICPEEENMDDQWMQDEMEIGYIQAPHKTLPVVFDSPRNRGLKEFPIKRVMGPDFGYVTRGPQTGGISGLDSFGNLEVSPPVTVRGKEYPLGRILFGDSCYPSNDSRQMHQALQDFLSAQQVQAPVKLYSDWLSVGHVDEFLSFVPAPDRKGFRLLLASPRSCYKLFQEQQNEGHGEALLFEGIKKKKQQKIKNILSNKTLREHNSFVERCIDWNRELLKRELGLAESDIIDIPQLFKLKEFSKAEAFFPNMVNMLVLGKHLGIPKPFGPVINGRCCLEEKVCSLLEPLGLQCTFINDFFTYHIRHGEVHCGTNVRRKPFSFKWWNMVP

Row | Compound | IC50
1 | [2H]C([2H])([2H])C(C(=O)N[C@H](C)c1ccc2cc(-c3nc4cc(C(=O)N5C[C@H](N)CCN5C)cc(OC)c4n3C)n(CC3CC3)c2n1)(C([2H])([2H])[2H])C([2H])([2H])[2H] [Example 189, N-((R)-1-(2-(5-((R)-5-amino-2-methylhexahydropyridazine-1-carbonyl)-7-methoxy-1-methyl-1H-benzo[d]imidazol-2-yl)-1-(cyclopropylmethyl)-1H-pyrrolo[2,3-b]pyridin-6-yl)ethyl)-2,2-bis(methyl-d3)propanamide] | 92.2 nM
2 | COc1cc(C(=O)N2C[C@H](N)CCN2C)cc2nc(-c3cc4ccc([C@@H](C)NC(=O)C5(CF)CC5)nc4n3CC3CC3)n(C)c12 [Example 190, N-((R)-1-(2-(5-((R)-5-amino-2-methylhexahydropyridazine-1-carbonyl)-7-methoxy-1-methyl-1H-benzo[d]imidazol-2-yl)-1-(cyclopropylmethyl)-1H-pyrrolo[2,3-b]pyridin-6-yl)ethyl)-1-(fluoromethyl)cyclopropane-1-carboxamide] | 89.7 nM
3 | COc1cc(C(=O)N2C[C@H](N)CCN2C)cc2nc(-c3cc4ccc([C@@H](C)NC(=O)C5(C(F)F)CC5)nc4n3CC3CC3)n(C)c12 [Example 191, N-((R)-1-(2-(5-((R)-5-amino-2-methylhexahydropyridazine-1-carbonyl)-7-methoxy-1-methyl-1H-benzo[d]imidazol-2-yl)-1-(cyclopropylmethyl)-1H-pyrrolo[2,3-b]pyridin-6-yl)ethyl)-1-(difluoromethyl)cyclopropane-1-carboxamide] | 82.4 nM
4 | COc1cc(C(=O)N2C[C@H](N)CCN2C)cc2nc(-c3cc4ccc([C@@H](C)NC(=O)C5(C(F)(F)F)CC5)nc4n3CC3CC3)n(C)c12 [Example 192, N-((R)-1-(2-(5-((R)-5-amino-2-methylhexahydropyridazine-1-carbonyl)-7-methoxy-1-methyl-1H-benzo[d]imidazol-2-yl)-1-(cyclopropylmethyl)-1H-pyrrolo[2,3-b]pyridin-6-yl)ethyl)-1-(trifluoromethyl)cyclopropane-1-carboxamide] | 174 nM
5 | COc1cc(C(=O)N2C[C@H](N)CCN2C)cc2nc(-c3cc4ccc([C@@H](C)NC(=O)C5(CC(F)F)CC5)nc4n3CC3CC3)n(C)c12 [Example 193, N-((R)-1-(2-(5-((R)-5-amino-2-methylhexahydropyridazine-1-carbonyl)-7-methoxy-1-methyl-1H-benzo[d]imidazol-2-yl)-1-(cyclopropylmethyl)-1H-pyrrolo[2,3-b]pyridin-6-yl)ethyl)-1-(2,2-difluoroethyl)cyclopropane-1-carboxamide] | 142 nM
6 | COc1cc(C(=O)N2C[C@H](N)CCN2C)cc2nc(-c3cc4ccc([C@@H](C)NC(=O)c5ccccc5C)nc4n3CC3CC3)n(C)c12 [Example 194, N-((R)-1-(2-(5-((R)-5-amino-2-methylhexahydropyridazine-1-carbonyl)-7-methoxy-1-methyl-1H-benzo[d]imidazol-2-yl)-1-(cyclopropylmethyl)-1H-pyrrolo[2,3-b]pyridin-6-yl)ethyl)-2-methylbenzamide] | 123 nM
7 | COc1cc(C(=O)N2C[C@H](N)CCN2C)cc2nc(-c3cc4ccc([C@@H](C)NC(=O)c5ccc(F)cc5C)nc4n3CC3CC3)n(C)c12 [Example 195, N-((R)-1-(2-(5-((R)-5-amino-2-methylhexahydropyridazine-1-carbonyl)-7-methoxy-1-methyl-1H-benzo[d]imidazol-2-yl)-1-(cyclopropylmethyl)-1H-pyrrolo[2,3-b]pyridin-6-yl)ethyl)-4-fluoro-2-methylbenzamide] | 102 nM
8 | COc1cc(C(=O)N2C[C@H](N)CCN2C)cc2nc(-c3cc4ccc([C@@H](C)NC(=O)c5ccccc5C(F)(F)F)nc4n3CC3CC3)n(C)c12 [Example 196, N-((R)-1-(2-(5-((R)-5-amino-2-methylhexahydropyridazine-1-carbonyl)-7-methoxy-1-methyl-1H-benzo[d]imidazol-2-yl)-1-(cyclopropylmethyl)-1H-pyrrolo[2,3-b]pyridin-6-yl)ethyl)-2-(trifluoromethyl)benzamide] | 129 nM
9 | COc1cc(C(=O)N2C[C@H](N)CCN2C)cc2nc(-c3cc4ccc([C@@H](C)NC(=O)c5cc(F)ccc5C)nc4n3CC3CC3)n(C)c12 [Example 197, N-((R)-1-(2-(5-((R)-5-amino-2-methylhexahydropyridazine-1-carbonyl)-7-methoxy-1-methyl-1H-benzo[d]imidazol-2-yl)-1-(cyclopropylmethyl)-1H-pyrrolo[2,3-b]pyridin-6-yl)ethyl)-5-fluoro-2-methylbenzamide] | 116 nM
10 | COc1cc(C(=O)N2C[C@H](N)CCN2C)cc2nc(-c3cc4ccc([C@@H](C)NC(=O)c5c(F)cccc5C(F)(F)F)nc4n3CC3CC3)n(C)c12 [Example 198, N-((R)-1-(2-(5-((R)-5-amino-2-methylhexahydropyridazine-1-carbonyl)-7-methoxy-1-methyl-1H-benzo[d]imidazol-2-yl)-1-(cyclopropylmethyl)-1H-pyrrolo[2,3-b]pyridin-6-yl)ethyl)-2-fluoro-6-(trifluoromethyl)benzamide] | 166 nM
11 | COc1cc(C(=O)N2C[C@H](N)CCN2C)cc2nc(-c3cc4ccc([C@@H](C)NC(=O)C5(c6ccc(F)cc6)CC5)nc4n3CC3CC3)n(C)c12 [Example 199, N-((R)-1-(2-(5-((R)-5-amino-2-methylhexahydropyridazine-1-carbonyl)-7-methoxy-1-methyl-1H-benzo[d]imidazol-2-yl)-1-(cyclopropylmethyl)-1H-pyrrolo[2,3-b]pyridin-6-yl)ethyl)-1-(4-fluorophenyl)cyclopropane-1-carboxamide] | 340 nM
12 | COc1cc(C(=O)N2C[C@H](N)CCN2C)cc2nc(-c3cc4ccc([C@@H](C)NC(=O)C5(C)CC5)nc4n3CC3CC3)n(C)c12 [Example 200, N-((R)-1-(2-(5-((R)-5-amino-2-methylhexahydropyridazine-1-carbonyl)-7-methoxy-1-methyl-1H-benzo[d]imidazol-2-yl)-1-(cyclopropylmethyl)-1H-pyrrolo[2,3-b]pyridin-6-yl)ethyl)-1-methylcyclopropane-1-carboxamide] | 64.2 nM
13 | COc1cc(C(=O)N2C[C@H](N)CCN2C)cc2nc(-c3cc4ccc([C@@H](C)NC(=O)c5cccnc5)nc4n3CC3CC3)n(C)c12 [Example 201, N-((R)-1-(2-(5-((R)-5-amino-2-methylhexahydropyridazine-1-carbonyl)-7-methoxy-1-methyl-1H-benzo[d]imidazol-2-yl)-1-(cyclopropylmethyl)-1H-pyrrolo[2,3-b]pyridin-6-yl)ethyl)nicotinamide] | 67.7 nM
14 | COc1cc(C(=O)N2[C@H]3CC[C@@H]2[C@H](N)C3)cc2nc(-c3cc4ccc([C@@H](C)NC(=O)[C@@H]5CC5(F)F)nc4n3CC3CC3)n(C)c12 [Example 202, (S)-N-((R)-1-(2-(5-((1R,2R,4S)-2-amino-7-azabicyclo[2.2.1]heptane-7-carbonyl)-7-methoxy-1-methyl-1H-benzo[d]imidazol-2-yl)-1-(cyclopropylmethyl)-1H-pyrrolo[2,3-b]pyridin-6-yl)ethyl)-2,2-difluorocyclopropane-1-carboxamide] | 58.7 nM
15 | COc1cc(C(=O)N2[C@H]3CC[C@@H]2[C@H](N)C3)cc2nc(-c3cc4ccc([C@@H](C)NC(=O)c5ccccc5C(F)F)nc4n3CC3CC3)n(C)c12 [Example 203, N-((R)-1-(2-(5-((1R,2R,4S)-2-amino-7-azabicyclo[2.2.1]heptane-7-carbonyl)-7-methoxy-1-methyl-1H-benzo[d]imidazol-2-yl)-1-(cyclopropylmethyl)-1H-pyrrolo[2,3-b]pyridin-6-yl)ethyl)-2-(difluoromethyl)benzamide] | 155 nM
16 | COc1cc(C(=O)N2[C@H]3CC[C@@H]2[C@H](N)C3)cc2nc(-c3cc4ccc([C@@H](C)NC(=O)C5CC(F)(F)C5)nc4n3CC3CC3)n(C)c12 [Example 204, N-((R)-1-(2-(5-((1R,2R,4S)-2-amino-7-azabicyclo[2.2.1]heptane-7-carbonyl)-7-methoxy-1-methyl-1H-benzo[d]imidazol-2-yl)-1-(cyclopropylmethyl)-1H-pyrrolo[2,3-b]pyridin-6-yl)ethyl)-3,3-difluorocyclobutane-1-carboxamide] | 47.4 nM
17 | COc1cc(C(=O)N2[C@H]3CC[C@@H]2[C@H](N)C3)cc2nc(-c3cc4ccc([C@@H](C)NC(=O)c5cnn(C(F)F)c5)nc4n3CC3CC3)n(C)c12 [Example 205, N-((R)-1-(2-(5-((1R,2R,4S)-2-amino-7-azabicyclo[2.2.1]heptane-7-carbonyl)-7-methoxy-1-methyl-1H-benzo[d]imidazol-2-yl)-1-(cyclopropylmethyl)-1H-pyrrolo[2,3-b]pyridin-6-yl)ethyl)-1-(difluoromethyl)-1H-pyrazole-4-carboxamide] | 79.7 nM
18 | COc1cc(C(=O)N2[C@H]3CC[C@@H]2[C@H](N)C3)cc2nc(-c3cc4ccc([C@@H](C)NC(=O)c5cnn(C)c5)nc4n3CC3CC3)n(C)c12 [Example 206, N-((R)-1-(2-(5-((1R,2R,4S)-2-amino-7-azabicyclo[2.2.1]heptane-7-carbonyl)-7-methoxy-1-methyl-1H-benzo[d]imidazol-2-yl)-1-(cyclopropylmethyl)-1H-pyrrolo[2,3-b]pyridin-6-yl)ethyl)-1-methyl-1H-pyrazole-4-carboxamide] | 45.5 nM
19 | COc1cc(C(=O)N2[C@H]3CC[C@@H]2[C@H](N)C3)cc2nc(-c3cc4ccc([C@@H](C)NC(=O)C5(C(F)(F)F)CC5)nc4n3CC3CC3)n(C)c12 [Example 207, N-((R)-1-(2-(5-((1R,2R,4S)-2-amino-7-azabicyclo[2.2.1]heptane-7-carbonyl)-7-methoxy-1-methyl-1H-benzo[d]imidazol-2-yl)-1-(cyclopropylmethyl)-1H-pyrrolo[2,3-b]pyridin-6-yl)ethyl)-1-(trifluoromethyl)cyclopropane-1-carboxamide] | 240 nM
